From the supplement of paper PMC11061612

Experiments:
[1] = test system: NCI-H522 (Lung Adenocarcinoma); assay: Bliss excess, mean over the matrix (fraction); higher = more synergy
How it was run: (§1)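 Cell lines grown in DMEM/F12 or RPMI with 10% FBS were plated in 1536-well plates and held 24 hours at 37°C, 5% CO2 before 72 hours of exposure to two-drug dose matrices, with DMSO typically at 0.2%. CellTiter-Glo 2.0 luminescence gave viability, which was converted to inhibition. Vehicle wells were set to 0 and blank wells to 1. Combination Emax is the second-highest inhibition in the matrix, and Bliss excess is the observed combination effect minus the expected EA + EB − EA·EB, where EA and EB are the single-agent effects.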

[2] = test system: A4-Fuk (B-Lymphoblastic Leukemia); assay: as above
How it was run: as §1

[3] = test system: COLO-668 (Small Cell Lung Carcinoma); assay: as above
How it was run: as §1

[4] = test system: SNU-387 (Hepatocellular Carcinoma); assay: as above
How it was run: as §1

[5] = test system: MDA-MB-453 (Breast Carcinoma); assay: as above
How it was run: as §1

[6] = test system: ML-2 (Acute Myeloid Leukemia); assay: as above
How it was run: as §1

[7] = test system: SW982 (Other Solid Carcinomas); assay: as above
How it was run: as §1

[8] = test system: HAL-01 (B-Lymphoblastic Leukemia); assay: as above
How it was run: as §1

[9] = test system: OE33 (Esophageal Adenocarcinoma); assay: as above
How it was run: as §1

Hey (Ovarian Carcinoma) = assay: combination Emax (second highest fraction inhibited in the dose matrix, 72 h); higher = more inhibition; extreme values may be limits of the assay
How it was run: as §1

EW-1 (Ewing's Sarcoma) = assay: as above
How it was run: as §1

[10] = test system: NCI-H2122 (Lung Adenocarcinoma); assay: as above
How it was run: as §1

[11] = test system: KOPN-8 (B-Lymphoblastic Leukemia); assay: as above
How it was run: as §1

[12] = test system: NCI-H1838 (Lung Adenocarcinoma); assay: as above
How it was run: as §1

[13] = test system: OACM5-1 (Esophageal Adenocarcinoma); assay: as above
How it was run: as §1

[14] = test system: EJM (Plasma Cell Myeloma); assay: as above
How it was run: as §1

[15] = test system: LC-1-sq (Squamous Cell Lung Carcinoma); assay: as above
How it was run: as §1

[16] = test system: HCC2998 (Colorectal Carcinoma); assay: as above
How it was run: as §1

[17] = test system: NCI-H1092 (Small Cell Lung Carcinoma); assay: as above
How it was run: as §1

[18] = test system: ALL-SIL (T-Lymphoblastic Leukemia); assay: as above
How it was run: as §1
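Throughout, for Bliss excess, mean over the matrix: after 72 h of two-drug dosing.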

| SMILES | Bliss excess [1] | Bliss excess [2] | Bliss excess [3] | Bliss excess [4] | Bliss excess [5] | Bliss excess [6] | Bliss excess [7] | Bliss excess [8] | Bliss excess [9] | combination Emax (Hey (Ovarian Carcinoma)) | combination Emax (EW-1 (Ewing's Sarcoma)) | combination Emax [10] | combination Emax [11] | combination Emax [12] | combination Emax [13] | combination Emax [14] | combination Emax [15] | combination Emax [16] | combination Emax [17] | combination Emax [18] |
| --- | --- | --- | --- | --- | --- | --- | --- | --- | --- | --- | --- | --- | --- | --- | --- | --- | --- | --- | --- | --- |
| CN(CCO)CC[C@H](CSc1ccccc1)Nc1ccc(S(=O)(=O)NC(=O)c2ccc(N3CCC([C@@H](O)c4ccccc4-c4ccc(Cl)cc4)CC3)cc2)cc1S(=O)(=O)C(F)(F)F [AZD4320] + Nc1ccn([C@@H]2O[C@H](CO)[C@@H](O)C2(F)F)c(=O)n1 [Gemcitabine] (first compound max 1 µM, 7x7, partner max 0.3 µM) | -0.0645 | -0.0912 | 0.0417 | -0.0646 | 0.0093 | 0.0042 | 0.0339 | 0.0448 | -0.0527 |  |  |  |  |  |  |  |  |  |  |  |
| Cc1cc2ncnn2cc1Nc1ncc2c(n1)n(C1CCOCC1)c(=O)n2C [AZD7648] + C=CCn1c(=O)c2cnc(Nc3ccc(N4CCN(C)CC4)cc3)nc2n1-c1cccc(C(C)(C)O)n1 [AZD1775] (first compound max 10 µM, partner max 1 µM) | 0.0181 | -0.0655 | -0.0151 | -0.123 | -0.0223 | -0.0199 | -0.0111 | 0.183 | 0.0062 | 0.613 | 0.832 | 0.766 | 0.903 | 0.569 | 0.473 | 0.893 | 0.91 | 0.628 | 0.382 | 0.867 |
| CN(CCO)CC[C@H](CSc1ccccc1)Nc1ccc(S(=O)(=O)NC(=O)c2ccc(N3CCC([C@@H](O)c4ccccc4-c4ccc(Cl)cc4)CC3)cc2)cc1S(=O)(=O)C(F)(F)F [AZD4320] + Cc1cc2ncnn2cc1Nc1ncc2c(n1)n(C1CCOCC1)c(=O)n2C [AZD7648] (first compound max 1 µM, 7x7, partner max 10 µM) | -0.0351 | -0.0211 | -0.0431 | -0.041 | -0.0409 | -0.0141 | 0.0065 | 0.0071 | -0.0489 | 0.247 | 0.745 | 0.273 | 0.88 | 0.289 | 0.577 | 0.382 | 0.158 | 0.492 | 0.855 | 1 |
| Cc1cc2ncnn2cc1Nc1ncc2c(n1)n(C1CCOCC1)c(=O)n2C [AZD7648] + CN(C)CCCOc1ccc(-c2ccc3ncc4c(c3c2)n(C2CCOCC2)c(=O)n4C)cn1 [AZD0156] (first compound max 10 µM, 7x7, partner max 1 µM) | -0.0127 | 0.0001 | -0.0252 | -0.0188 | 0.0257 | -0.0154 | -0.0471 | -0.0058 | 0.0005 | 0.32 | 0.34 | 0.253 | 0.311 | 0.371 | 0.27 | 0.225 | 0.221 | 0.299 | 0.0818 | 0.321 |
| Cc1cc2ncnn2cc1Nc1ncc2c(n1)n(C1CCOCC1)c(=O)n2C [AZD7648] + O=C(c1cc(Cc2n[nH]c(=O)c3ccccc23)ccc1F)N1CCN(C(=O)C2CC2)CC1 [Olaparib] (first compound max 10 µM, 7x7, partner max 10 µM) | -0.0308 | -0.038 | -0.0105 | -0.0303 | -0.0144 | -0.0218 | 0.0002 | 0.0522 | -0.0359 | 0.266 | 0.732 | 0.242 | 0.68 | 0.323 | 0.267 | 0.2 | 0.17 | 0.321 | 0.111 | 0.315 |
| Cc1c2c(nn1C)CSCc1cc(n(C)n1)CSc1cc(c3ccccc3c1)OCCCc1c(C(=O)O)n(C)c3c-2c(Cl)ccc13 [AZD5991] + Cn1cnc2c(F)c(Nc3ccc(Br)cc3Cl)c(C(=O)NOCCO)cc21 [Selumetinib] (first compound max 1 µM, 7x7, partner max 3 µM) | -0.0194 |  | 0.106 | 0.064 | 0.0055 | 0.0659 | 0.0248 | 0.062 |  | 0.563 | 0.273 | 0.935 | 1 | 0.511 | 0.94 | 0.983 | 0.311 | 0.998 | 0.608 | 1 |
